Results: patent US20070117770A1, “Human ribosomal DNA (rDNA) and ribosomal RNA (rRNA) nucleic acids and uses thereof” (Cylene Pharmaceuticals, Inc., priority 2005, published 2007)

What was measured:
Test in all cases: Protein kinase inhibition assay
Assay type in all cases: biochemical
EphB3(h) = EphB3(h) (Homo sapiens, UniProt P54753); conditions: read-out: percent residual activity of EphB3(h)
Protocol: (§1) Certain compounds were tested for activity in protein kinase inhibition assays. All substrates were dissolved and diluted to working stocks in de-ionized water, apart from histone H1 (10× working stock in 20 mM MOPS pH 7.0), PDKtide (10× working stock in 50 mM Tris pH 7.0) ATF2 (which is typically stored at a 20× working stock in 50 mM Tris pH 7.5, 150 mM NaCl, 0.1 mM EGTA, 0.03% Brij-35, 50% glycerol, 1 mM benzamidine, 0.2 mM PMSF and 0.1% R-mercaptoethanol), KKLNRTLSFAEPG (SEQ ID NO:203) and RRRLSFAEPG (SEQ ID NO:204) (50 mM HEPES pH 7.4) and GGEEEEYFELVKKKK (SEQ ID NO:205) (20 mM MOPS pH 7.0). All kinases were pre-diluted to a 10× working concentration prior to addition into the assay. The composition of the dilution buffer for each kinase is detailed below.
(§2) In a final reaction volume of 25 μl, EphB3 (h) (5-10 mU) is incubated with 8 mM MOPS pH 7.0, 0.2 mM EDTA, 10 mM MnCl2, 0.1 mg/ml poly (Glu, Tyr) 4:1, 10 mM MgAcetate and [gamma-33P-ATP] (specific activity approx. 500 cpm/pmol, concentration as required). The reaction is initiated by the addition of the MgATP mix. After incubation for 40 minutes at room temperature, the reaction is stopped by the addition of 5 μl of a 3% phosphoric acid solution. 10 μl of the reaction is then spotted onto a Filtermat A and washed three times for 5 minutes in 75 mM phosphoric acid and once in methanol prior to drying and scintillation counting.

Arg(m) = Arg(m) (Mus musculus, UniProt Q4JIM5); conditions: read-out: percent residual activity of Arg(m)
Protocol: as §1
as §2, with “Arg (m)” for “EphB3 (h)”, “50 μM EAIYAAPFAKKK (SEQ ID NO:206),” for “10 mM MnCl2, 0.1 mg/ml poly (Glu, Tyr) 4:1,”, “P30 filtermat” for “Filtermat A”

FGFR4(h) = FGFR4(h) (Homo sapiens, UniProt P22455); conditions: read-out: percent residual activity of FGFR4(h)
Protocol: as §1
as §2, with “FGFR4” for “EphB3”, “poly(Glu,” for “poly (Glu,”

NEK7(h) = NEK7(h) (Homo sapiens, UniProt Q8TDX7); conditions: read-out: percent residual activity of NEK7(h)
Protocol: as §1
as §2, with “μl, NEK7” for “μl, EphB3”, “EDTA, 300 μM FLAKSFGSPNRAYKK (SEQ ID NO:221),” for “EDTA, 10 mM MnCl2, 0.1 mg/ml poly (Glu, Tyr) 4:1,”, “10 pi” for “10 μl”, “a P30 filtermat” for “a Filtermat A”

MSK2(h) = MSK2(h) (Homo sapiens, UniProt O75676); conditions: read-out: percent residual activity of MSK2(h)
Protocol: as §1
as §2, with “MSK2” for “EphB3”, “30 μM GRPRTSSFAEGKK (SEQ ID NO:220),” for “10 mM MnCl2, 0.1 mg/ml poly (Glu, Tyr) 4:1,”, “P30 filtermat” for “Filtermat A”

PKD2(h) = PKD2(h) (Homo sapiens, UniProt Q9BZL6); conditions: read-out: percent residual activity of PKD2(h)
Protocol: as §1
as §2, with “PKD2” for “EphB3”, “20” for “8”, “HEPES” for “MOPS”, “7.4, 0.03% Triton X-100, 30 μM KKLNRTLSVA (SEQ ID NO:212)” for “7.0, 0.2 mM EDTA, 10 mM MnCl2, 0.1 mg/ml poly (Glu, Tyr) 4:1,”, “P30 filtermat” for “Filtermat A”

Sequence of Arg(m) (Q4JIM5 whole entry): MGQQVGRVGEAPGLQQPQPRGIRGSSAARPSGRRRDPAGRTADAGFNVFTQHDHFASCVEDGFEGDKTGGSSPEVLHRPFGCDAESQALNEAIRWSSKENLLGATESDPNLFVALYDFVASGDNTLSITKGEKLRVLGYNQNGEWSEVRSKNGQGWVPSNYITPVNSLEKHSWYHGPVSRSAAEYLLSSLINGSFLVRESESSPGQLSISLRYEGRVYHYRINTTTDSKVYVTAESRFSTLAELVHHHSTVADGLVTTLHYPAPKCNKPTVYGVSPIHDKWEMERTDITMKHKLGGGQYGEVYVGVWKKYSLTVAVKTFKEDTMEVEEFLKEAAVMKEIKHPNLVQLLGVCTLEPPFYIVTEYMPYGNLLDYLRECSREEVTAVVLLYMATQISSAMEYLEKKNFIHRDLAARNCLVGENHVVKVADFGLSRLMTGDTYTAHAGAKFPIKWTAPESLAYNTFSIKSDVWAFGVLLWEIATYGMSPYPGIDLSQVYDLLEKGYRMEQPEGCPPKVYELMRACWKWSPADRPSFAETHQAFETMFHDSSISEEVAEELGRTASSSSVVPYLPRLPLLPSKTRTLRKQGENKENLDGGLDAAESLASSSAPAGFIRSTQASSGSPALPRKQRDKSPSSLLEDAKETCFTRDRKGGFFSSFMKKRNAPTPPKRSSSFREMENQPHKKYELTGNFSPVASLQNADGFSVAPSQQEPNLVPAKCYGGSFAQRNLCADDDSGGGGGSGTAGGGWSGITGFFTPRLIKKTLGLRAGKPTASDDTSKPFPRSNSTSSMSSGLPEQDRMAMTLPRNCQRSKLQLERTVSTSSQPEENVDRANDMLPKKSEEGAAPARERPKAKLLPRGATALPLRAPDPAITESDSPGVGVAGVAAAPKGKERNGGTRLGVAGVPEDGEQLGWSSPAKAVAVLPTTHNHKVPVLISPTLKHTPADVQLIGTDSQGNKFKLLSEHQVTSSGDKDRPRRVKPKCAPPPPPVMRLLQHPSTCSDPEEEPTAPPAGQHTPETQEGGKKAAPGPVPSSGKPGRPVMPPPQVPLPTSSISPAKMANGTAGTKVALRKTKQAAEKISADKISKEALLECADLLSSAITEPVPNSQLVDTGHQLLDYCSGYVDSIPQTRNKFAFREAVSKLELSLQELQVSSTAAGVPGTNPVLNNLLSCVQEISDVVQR
Sequence of FGFR4(h) (P22455 22-802): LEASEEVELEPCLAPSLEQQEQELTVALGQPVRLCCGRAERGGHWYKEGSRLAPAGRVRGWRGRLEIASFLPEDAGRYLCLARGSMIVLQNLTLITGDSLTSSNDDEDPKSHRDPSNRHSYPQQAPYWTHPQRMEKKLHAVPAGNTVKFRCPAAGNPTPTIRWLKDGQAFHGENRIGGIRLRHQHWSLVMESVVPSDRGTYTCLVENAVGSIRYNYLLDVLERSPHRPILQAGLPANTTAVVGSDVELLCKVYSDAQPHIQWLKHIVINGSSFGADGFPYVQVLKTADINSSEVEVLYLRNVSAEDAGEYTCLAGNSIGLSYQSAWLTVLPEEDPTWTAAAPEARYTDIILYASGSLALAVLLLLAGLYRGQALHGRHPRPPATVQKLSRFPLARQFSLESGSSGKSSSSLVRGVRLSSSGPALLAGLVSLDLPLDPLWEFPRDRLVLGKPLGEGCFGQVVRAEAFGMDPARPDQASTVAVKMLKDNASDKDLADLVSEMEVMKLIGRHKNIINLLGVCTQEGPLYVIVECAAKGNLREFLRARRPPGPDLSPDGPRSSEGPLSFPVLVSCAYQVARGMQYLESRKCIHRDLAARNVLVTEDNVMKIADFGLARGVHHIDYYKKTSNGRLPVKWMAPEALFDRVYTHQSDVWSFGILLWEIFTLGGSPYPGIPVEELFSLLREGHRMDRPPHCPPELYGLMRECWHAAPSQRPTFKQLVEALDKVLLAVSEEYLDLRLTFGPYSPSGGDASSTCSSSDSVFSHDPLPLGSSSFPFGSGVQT
Sequence of EphB3(h) (P54753 34-998): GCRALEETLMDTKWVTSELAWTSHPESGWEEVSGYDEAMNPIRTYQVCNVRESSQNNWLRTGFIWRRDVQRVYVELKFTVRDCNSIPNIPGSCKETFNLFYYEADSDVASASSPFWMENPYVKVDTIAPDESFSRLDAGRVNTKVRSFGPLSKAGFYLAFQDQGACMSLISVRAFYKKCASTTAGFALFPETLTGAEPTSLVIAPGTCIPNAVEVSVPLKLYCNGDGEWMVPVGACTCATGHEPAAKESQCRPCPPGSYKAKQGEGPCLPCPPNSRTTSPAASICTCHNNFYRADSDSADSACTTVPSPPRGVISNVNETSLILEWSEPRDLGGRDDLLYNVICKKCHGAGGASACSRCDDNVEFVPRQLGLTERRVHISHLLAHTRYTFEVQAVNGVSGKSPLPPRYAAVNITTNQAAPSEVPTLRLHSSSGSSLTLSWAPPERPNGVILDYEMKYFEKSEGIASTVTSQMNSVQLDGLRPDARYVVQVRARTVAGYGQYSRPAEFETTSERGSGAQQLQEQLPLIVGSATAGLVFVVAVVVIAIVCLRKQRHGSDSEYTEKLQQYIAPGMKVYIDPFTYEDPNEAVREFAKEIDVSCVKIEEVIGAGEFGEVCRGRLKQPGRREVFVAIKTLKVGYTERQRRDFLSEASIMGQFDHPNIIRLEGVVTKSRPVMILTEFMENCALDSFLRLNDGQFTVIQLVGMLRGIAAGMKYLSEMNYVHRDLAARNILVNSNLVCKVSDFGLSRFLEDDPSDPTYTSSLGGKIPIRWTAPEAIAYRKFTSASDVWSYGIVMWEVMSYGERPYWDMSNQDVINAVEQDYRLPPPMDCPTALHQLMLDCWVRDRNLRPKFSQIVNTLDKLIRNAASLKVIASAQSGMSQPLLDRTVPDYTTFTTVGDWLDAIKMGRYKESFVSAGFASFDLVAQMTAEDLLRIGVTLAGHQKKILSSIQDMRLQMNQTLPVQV
Sequence of PKD2(h) (Q9BZL6 whole entry): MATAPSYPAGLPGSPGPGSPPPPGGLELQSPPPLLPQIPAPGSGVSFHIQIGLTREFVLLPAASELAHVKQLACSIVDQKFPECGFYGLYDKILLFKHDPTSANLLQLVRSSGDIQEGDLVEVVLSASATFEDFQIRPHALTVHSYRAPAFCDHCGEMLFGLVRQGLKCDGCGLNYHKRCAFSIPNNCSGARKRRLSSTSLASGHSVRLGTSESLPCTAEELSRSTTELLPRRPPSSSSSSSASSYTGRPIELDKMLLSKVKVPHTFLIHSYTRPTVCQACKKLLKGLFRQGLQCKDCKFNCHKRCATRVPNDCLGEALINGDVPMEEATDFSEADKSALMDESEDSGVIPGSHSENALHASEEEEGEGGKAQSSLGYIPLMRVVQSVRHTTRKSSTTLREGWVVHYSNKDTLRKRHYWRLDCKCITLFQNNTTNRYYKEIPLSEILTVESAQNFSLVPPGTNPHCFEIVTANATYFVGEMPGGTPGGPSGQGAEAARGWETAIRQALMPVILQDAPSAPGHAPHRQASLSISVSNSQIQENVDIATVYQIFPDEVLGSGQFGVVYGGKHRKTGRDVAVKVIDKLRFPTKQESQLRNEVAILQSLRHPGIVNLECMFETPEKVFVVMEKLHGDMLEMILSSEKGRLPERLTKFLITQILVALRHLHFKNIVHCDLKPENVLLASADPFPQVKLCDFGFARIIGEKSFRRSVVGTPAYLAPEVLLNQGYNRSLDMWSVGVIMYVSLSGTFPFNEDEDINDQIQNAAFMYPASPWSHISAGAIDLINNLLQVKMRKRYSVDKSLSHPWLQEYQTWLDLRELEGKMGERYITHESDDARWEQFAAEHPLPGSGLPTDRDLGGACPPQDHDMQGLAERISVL
Sequence of NEK7(h) (Q8TDX7 whole entry): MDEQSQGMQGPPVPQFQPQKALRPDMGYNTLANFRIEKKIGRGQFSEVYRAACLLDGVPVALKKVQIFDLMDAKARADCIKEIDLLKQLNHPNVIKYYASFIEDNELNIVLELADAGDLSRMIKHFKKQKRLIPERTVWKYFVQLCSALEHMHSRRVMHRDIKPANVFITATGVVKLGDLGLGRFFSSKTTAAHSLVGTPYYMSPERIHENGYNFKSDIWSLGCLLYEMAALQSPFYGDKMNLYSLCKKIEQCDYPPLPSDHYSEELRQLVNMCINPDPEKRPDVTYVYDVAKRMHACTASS
Sequence of MSK2(h) (O75676 whole entry): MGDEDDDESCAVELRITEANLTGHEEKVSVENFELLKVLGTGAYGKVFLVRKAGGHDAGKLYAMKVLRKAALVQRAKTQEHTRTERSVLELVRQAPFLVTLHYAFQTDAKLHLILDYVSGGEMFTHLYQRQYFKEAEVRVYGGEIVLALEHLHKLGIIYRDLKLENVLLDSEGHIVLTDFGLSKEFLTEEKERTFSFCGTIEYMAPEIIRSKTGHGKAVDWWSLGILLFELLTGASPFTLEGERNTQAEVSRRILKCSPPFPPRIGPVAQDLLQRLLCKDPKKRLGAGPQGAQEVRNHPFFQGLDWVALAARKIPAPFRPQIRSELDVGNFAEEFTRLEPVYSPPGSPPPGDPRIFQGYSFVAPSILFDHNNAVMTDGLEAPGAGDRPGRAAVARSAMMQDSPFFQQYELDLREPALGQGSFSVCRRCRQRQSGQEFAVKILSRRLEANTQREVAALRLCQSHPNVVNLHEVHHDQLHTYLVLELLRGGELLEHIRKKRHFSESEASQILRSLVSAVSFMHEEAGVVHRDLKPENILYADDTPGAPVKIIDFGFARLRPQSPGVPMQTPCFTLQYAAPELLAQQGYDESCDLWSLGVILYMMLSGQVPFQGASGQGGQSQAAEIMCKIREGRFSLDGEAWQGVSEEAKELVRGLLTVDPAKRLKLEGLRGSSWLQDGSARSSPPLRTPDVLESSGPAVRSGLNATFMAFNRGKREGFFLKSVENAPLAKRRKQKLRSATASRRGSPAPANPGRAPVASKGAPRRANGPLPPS

Compound	remaining activity at 2.5 µM (EphB3(h)) [%]	remaining activity at 2.5 µM (Arg(m)) [%]	remaining activity at 2.5 µM (FGFR4(h)) [%]	remaining activity at 2.5 µM (NEK7(h)) [%]	remaining activity at 2.5 µM (MSK2(h)) [%]	remaining activity at 2.5 µM (PKD2(h)) [%]
CN1CCCC1CCNC(=O)c1cn2c3c(c(N4CCC(c5cnccn5)C4)c(F)cc3c1=O)Oc1cc3ccccc3cc1-2 (stereo not drawn) [Compound A-1]	111	43	112	102	50	79
CC(=O)N1CCN(c2ccc3c(=O)c(C(=O)NCCN4CCCC4)c4n(C)c5ccccc5n4c3n2)CC1 [Compound B-1]	115	102	104	101	94	98
